This is an account of results in patent US20070037752A1, “Novel alanyl-amino peptidase inhibitors for functionally influencing different cells and treating immunological, inflammatory, neuronal, and other diseases” (priority 2003, published 2007).

Structures are written as SMILES.

alanyl aminopeptidases (APN), sequence (P15144 whole entry, species assumed): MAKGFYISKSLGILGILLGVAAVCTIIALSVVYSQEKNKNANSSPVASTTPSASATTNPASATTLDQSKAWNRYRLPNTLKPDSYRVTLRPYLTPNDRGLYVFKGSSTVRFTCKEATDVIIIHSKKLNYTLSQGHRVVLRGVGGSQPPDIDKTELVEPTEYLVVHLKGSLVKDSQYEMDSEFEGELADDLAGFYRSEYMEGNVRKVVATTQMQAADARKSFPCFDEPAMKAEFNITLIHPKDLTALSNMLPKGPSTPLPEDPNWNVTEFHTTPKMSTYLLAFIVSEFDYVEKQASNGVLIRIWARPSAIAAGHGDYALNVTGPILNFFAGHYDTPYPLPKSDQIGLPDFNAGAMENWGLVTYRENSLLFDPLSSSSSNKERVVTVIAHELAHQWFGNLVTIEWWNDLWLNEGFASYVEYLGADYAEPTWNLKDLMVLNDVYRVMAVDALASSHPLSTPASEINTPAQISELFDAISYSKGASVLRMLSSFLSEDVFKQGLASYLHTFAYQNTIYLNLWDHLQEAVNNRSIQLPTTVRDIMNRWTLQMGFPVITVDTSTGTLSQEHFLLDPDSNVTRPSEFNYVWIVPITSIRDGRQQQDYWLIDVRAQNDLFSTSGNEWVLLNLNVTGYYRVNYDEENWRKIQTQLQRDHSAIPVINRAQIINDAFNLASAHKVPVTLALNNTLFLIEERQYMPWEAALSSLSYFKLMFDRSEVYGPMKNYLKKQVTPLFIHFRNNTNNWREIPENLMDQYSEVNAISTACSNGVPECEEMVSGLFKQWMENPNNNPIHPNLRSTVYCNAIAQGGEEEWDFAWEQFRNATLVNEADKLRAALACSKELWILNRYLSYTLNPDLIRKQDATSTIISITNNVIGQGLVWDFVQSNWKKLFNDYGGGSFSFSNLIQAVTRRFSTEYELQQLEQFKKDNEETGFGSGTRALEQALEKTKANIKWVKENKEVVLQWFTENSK

One assay concerns the target alanyl aminopeptidases (APN) (Homo sapiens, UniProt P15144). Briefly: Inhibition of alanyl aminopeptidase enzymatic activity, fluorogenic substrate (Ala)2-rhodamine 110. Type of assay: biochemical. To be noted: Table 1, unstarred values; read-out: IC50APN. The procedure:
The inhibition characteristics measured are referred to as IC-50 values or ID50 values (the latter marked with “*”) for said enzyme. The enzymatic activity was determined by means of the fluorogenic substrate/product (Ala)2-rhodamine 110.
Take `Cc1ccc(C(OCCC(=O)NO)c2ccccc2)cc1` (stereo not shown) [A1.010]: the IC50 amounted to 14.2 µM.

Still in this assay, the particulars now being: Table 3, starred values = ID50; read-out: ID50 APN (values marked with *).
In the case of `O=C(CNC(=O)c1ccccc1Br)N/N=C/c1ccco1` [A3.314], the IC50 is 91.2 µM. Still for that read-out and setting: the figure for `CCOC(=O)c1ncn(C(=O)OC)c1N` [A3.002] is 0.9 µM. On the same count and under the same terms, the figure for `Cc1cccc(C(=O)Nc2ccc(C(=O)N/N=C/c3ccc4c(c3)OCO4)cc2)c1` [A3.203] is 33.8 µM.

The same assay, now with this note: Table 3, unstarred values; read-out: IC50APN.
Consider `COc1ccc(C2NCCS2)cc1Br` (stereo not shown) [A3.215], for which the IC50 turned out to be 35.7 µM. Same read-out and setting: the figure for `O=C(Cc1cccs1)N/N=C/C=C\c1ccco1` [A3.171] is 28 µM. Take `CC1SC(N/N=C/c2ccco2)=NC1=O` (stereo not shown) [A3.169]: the IC50 came to 27.7 µM.

With `COc1ccccc1-n1c(CCC(=O)O)ccc1-c1cccs1` [A3.177], the IC50 came to 28.7 µM. Turning to `Nc1nc2nc(-c3ccco3)cc(C(F)(F)F)n2n1` [A3.195], the IC50 amounted to 32.1 µM. As to `C=CCN1C(=O)C(C#N)=C(C)/C(=C\c2ccc(-c3cc(C)c(C)cc3[N+](=O)[O-])o2)C1=O` [A3.180], the IC50 was 29.3 µM. Still for that read-out and setting: the figure for `Nc1nonc1-n1nnc(C(=O)N/N=C/c2ccco2)c1-c1ccccc1` [A3.249] is 46.6 µM. The same measure, in the same setting: the figure for `O=C(Nc1ccccc1C(=O)N/N=C/c1ccco1)c1ccccc1Cl` [A3.210] is 34.7 µM; for `NCCCNC(=O)C1Cc2ncn(Cc3ccccc3[N+](=O)[O-])c2CN1Cc1ccccn1` (stereo not shown) [A3.326] it is 138 µM.

Regarding `COC(=O)CCC/C=C1/SC[C@@H](NC(=O)c2ccccc2)/C1=N/O` [A3.317], the IC50 came to 93.6 µM. On to `Cc1cccc(C)c1NC1C(c2ccccc2NC(=O)Nc2ccc(OC(F)(F)F)cc2)N=C2C(C(=O)NCC(C)C)=CC=CN21` (stereo not shown) [A3.190], for which the IC50 is 31.1 µM. For the compound `CCOC(=O)N1CCc2c(sc(NC(=O)c3ccc(F)cc3)c2C(=O)Nc2ccc(Br)cc2)C1` [A3.026], the IC50 worked out at 7.3 µM. The same measure, in the same setting: the figure for `CCCCCCCC(=O)N/N=C/c1ccco1` [A3.264] is 50.3 µM. The same measure, in the same setting: the figure for `Cc1cc(I)ccc1CC(=O)CCC(=O)N/N=C/c1ccco1` [A3.095] is 9.5 µM; for `Cc1[nH]c2ccccc2c1C(c1cc(Cl)ccc1O)N1CCOCC1` (stereo not shown) [A3.046] it is 11.7 µM.

`Cc1cccc(C(=O)Nc2ccc(C(=O)N/N=C/c3ccc(C)o3)cc2)c1` [A3.106]: the IC50 was 20.2 µM.

Regarding `CC1=C(C#N)C(=O)N=C(O)/C1=C\c1ccc(-c2ccc(Cl)cc2Cl)o1` [A3.187], the IC50 came to 30.3 µM. The same measure, in the same setting: the figure for `COc1cc(Br)ccc1OCC(=O)N/N=C(C)/C=C/c1ccco1` [A3.217] is 36.3 µM. For the compound `O=C(NNC1=C(Cl)C(=O)C(Cl)(Cl)C1=O)c1ccccc1` [A3.070], the IC50 is 15.2 µM. Still for that read-out and setting: the figure for `Cc1ccc(/C=N/NC(=O)c2nnn(-c3nonc3N)c2-c2ccccc2)o1` [A3.025] is 6.9 µM. Same read-out and setting: the figure for `COc1ccc(C2NCCS2)cc1Br` (stereo not shown) [A3.078] is 16.4 µM; for `Cc1ccc(NC(=O)/C(=C\c2ccco2)NC(=O)c2ccc(C)cc2)cc1` [A3.077] it is 16.4 µM; for `O=C1/C(=C/C=C/c2ccco2)CCC/C1=C\C=C\c1ccco1` [A3.147] it is 24.4 µM. As for `O=C(N/N=C/c1ccco1)c1cccc(Br)c1` [A3.283], the IC50 was 62.7 µM. On the same count and under the same terms, the figure for `Cc1cc(C(=O)N/N=C/c2ccc(C)o2)[nH]n1` [A3.191] is 31.8 µM.

The same assay, now with this note: Table 4, starred values = ID50; read-out: ID50 APN (values marked with *).
On to `COc1ccc(C(=O)NCC(=O)N/N=C/c2ccco2)cc1OC` [A4.156], for which the IC50 came out at 64.9 µM. For the compound `Cc1cccc(C(=O)Nc2ccc(C(=O)N/N=C/c3ccc4c(c3)OCO4)cc2)c1` [A4.105], the IC50 was determined as 33.8 µM. On to `COc1cc(C(=O)NCC(=O)N/N=C\c2ccc(C)o2)cc(OC)c1OC` [A4.182], for which the IC50 was 161 µM.

Still in this assay, the particulars now being: Table 4, unstarred values; read-out: IC50APN.
As for `O=C(N/N=C/C=C\c1ccco1)c1cccs1` [A4.151], the IC50 was 62.7 µM. As for `O=C(COc1ccc2ccccc2c1)N/N=C/c1ccco1` [A4.029], the IC50 is 13.9 µM.

For `NC(=S)N/N=C/c1ccco1` [A4.141], the IC50 came to 50 µM. Take `O=C(CCn1nnc2ccccc21)N/N=C/c1ccco1` [A4.169]: the IC50 stood at 82.9 µM. On the same count and under the same terms, the figure for `CCCOc1ccccc1-c1c[nH]c(C(=O)N/N=C/c2ccco2)c1` [A4.051] is 19.5 µM; for `O=C(N/N=C/c1ccco1)c1cccc(NC(=O)c2ccccc2)c1` [A4.094] it is 29.5 µM; for `O=C(CC(=O)N/N=C/c1ccco1)N/N=C/c1ccco1` [A4.102] it is 32.4 µM. In the case of `CCN(CC)c1ccc(/C=C(\NC(=O)c2ccccc2)C(=O)N/N=C/c2ccc(O)c([N+](=O)[O-])c2)cc1` [A4.011], the IC50 was found to be 7.6 µM. As for `O=C(N/N=C/c1ccco1)c1cc(-c2ccc(F)cc2)n[nH]1` [A4.031], the IC50 was determined as 14.4 µM. As for `COc1cc(Br)ccc1OCC(=O)N/N=C/c1cc(Br)c(O)c(O)c1Br` [A4.056], the IC50 was 20.5 µM. On the same count and under the same terms, the figure for `CC(/C=N/NC(=O)C(O)c1ccccc1)=C\c1ccco1` (stereo not shown) [A4.118] is 36.3 µM; for `Cc1ccc(/C=N/NC(=O)c2ccc(O)cc2)o1` [A4.072] it is 23.4 µM. Same read-out and setting: the figure for `CC(C)Oc1ccc(Br)cc1C(=O)N/N=C/c1ccco1` [A4.134] is 46.6 µM; for `COc1ccc(C(=O)N/N=C/c2ccco2)cc1` [A4.065] it is 22.6 µM; for `CC(=O)Oc1ccc([N+](=O)[O-])cc1/C=N/NC(=O)COc1cc(C)ccc1C(C)C` [A4.055] it is 20.3 µM. On the same count and under the same terms, the figure for `CCOc1cc(/C=N/NC(=O)CNC(=O)c2cccc(Cl)c2)ccc1OC(=O)c1cccs1` [A4.020] is 12.2 µM; for `CC(C)c1cc(C(=O)N/N=C/c2ccco2)[nH]n1` [A4.040] it is 16.6 µM.

In the case of `O=C(Cc1cccs1)N/N=C/C=C\c1ccco1` [A4.090], the IC50 came out at 28 µM. With `COc1cccc(/C=N/NC(=O)c2ccn(C)n2)c1O` [A4.177], the IC50 was determined as 142 µM. For the compound `CCCOc1ccc(/C=C(\NC(=O)c2ccccc2)C(=O)N/N=C/c2ccco2)cc1` [A4.086], the IC50 was determined as 27.3 µM.

On to `Cc1ccccc1C(=O)Nc1ccc(C(=O)N/N=C/c2ccco2)cc1` [A4.133], for which the IC50 came out at 45.4 µM. With `CCc1cccc(CC)c1NC(=S)N/N=C1\C(=O)N(CN2CC(C)CC(C)C2)c2ccccc21` (stereo not shown) [A4.007], the IC50 was found to be 6.7 µM.

Staying with this assay, now noted: Table 6; read-out: IC50APN.
On to `Cc1ccc(S(=O)(=O)CNC(=S)c2ccc(Cl)c(Cl)c2)cc1` [A6.011], for which the IC50 was 18 µM.

The same assay, now with this note: Table 7; read-out: IC50APN.
Regarding `O=C1C(Cc2c[nH]c3ccccc23)NC(=S)N1c1ccccc1` (stereo not shown) [A7.006], the IC50 amounted to 12.4 µM.

Staying with this assay, now noted: Table 8, starred values = ID50; read-out: ID50 APN (values marked with *).
Consider `Cn1c(=O)c2c(ncn2CC(=O)N/N=C/C=C\c2ccco2)n(C)c1=O` [A8.037], for which the IC50 stood at 79.8 µM.

Still in this assay, the particulars now being: Table 8, unstarred values; read-out: IC50APN.
`CCc1cccc(CC)c1NC(=S)N/N=C1\C(=O)N(CN2CC(C)CC(C)C2)c2ccccc21` (stereo not shown) [A8.004]: the IC50 was determined as 6.7 µM. On the same count and under the same terms, the figure for `CC1SC(N/N=C/c2ccco2)=NC1=O` (stereo not shown) [A8.006] is 8 µM; for `CSCCC1NC(=S)N(Cc2ccccc2)C1=O` (stereo not shown) [A8.012] it is 14.1 µM.

The assay is the same for the next values; noted with them: Table 9, starred values = ID50; read-out: ID50 APN (values marked with *).
In the case of `CC(=O)Oc1ccc2c(=O)c(-c3cnn(-c4ccccc4)c3)c(C(F)(F)F)oc2c1OC(C)=O` [A9.122], the IC50 worked out at 134 µM. Same read-out and setting: the figure for `Cn1c(=O)c2c(ncn2CC(=O)N/N=C/C=C\c2ccco2)n(C)c1=O` [A9.113] is 79.8 µM.

Still in this assay, the particulars now being: Table 9, unstarred values; read-out: IC50APN.
With `O=C(N/C(=C\c1ccco1)C(=O)N1CCC(O)CC1)c1ccccc1` [A9.051], the IC50 is 21.1 µM. On the same count and under the same terms, the figure for `COc1ccc(/C=N/NC(=O)C2=C(C)Nc3ccccc3S2)cc1Cn1nc(C)c(Br)c1C` [A9.007] is 4.8 µM; for `CCOC(=O)N1CCc2c(sc(NC(=O)c3ccc(F)cc3)c2C(=O)Nc2ccc(Br)cc2)C1` [A9.013] it is 7.3 µM; for `Cc1ccccc1NC(=O)C1C(c2cccs2)C(C#N)=C(SCC(=O)Nc2ccc(Br)cc2)NC1(C)O` (stereo not shown) [A9.087] it is 33.9 µM. The same measure, in the same setting: the figure for `COC(=O)c1cccc(-c2ccc(/C=C3\C(=O)N(CCO)C(=O)C(C#N)=C3C)o2)c1` [A9.010] is 6.3 µM; for `N#Cc1cc(N2CC3CC(C2)c2cccc(=O)n2C3)c([N+](=O)[O-])cc1C#N` (stereo not shown) [A9.017] it is 8.9 µM; for `CCc1cccc(CC)c1NC(=S)N/N=C1\C(=O)N(CN2CC(C)CC(C)C2)c2ccccc21` (stereo not shown) [A9.011] it is 6.7 µM. `Cc1ccc(/C=N/NC(=O)c2nnn(-c3nonc3N)c2CN2CCOCC2)o1` [A9.067]: the IC50 was 26.7 µM.

Staying with this assay, now noted: Table 11; read-out: IC50APN.
Regarding `CCOC(=O)C(C#N)c1c([N+](=O)[O-])c(=O)n(-c2ccccc2)c2ccccc12` (stereo not shown) [A11.022], the IC50 came to 30 µM. Still for that read-out and setting: the figure for `O=C(Cc1ccc(Br)c2ccccc12)N/N=C/c1ccc([N+](=O)[O-])c(O)c1` [A11.003] is 7 µM; for `O=C(C[N+](=O)[O-])c1cc2occc2[nH]1` [A11.030] it is 49.5 µM; for `O=[N+](O)CC(c1ccccc1)P(=O)(c1ccccc1)c1ccccc1` (stereo not shown) [A11.011] it is 16.3 µM.

As for `CN(C)CCCN1CCN(c2nc(N(C)CC(=O)O)c3ncn(Cc4ccc([N+](=O)[O-])cc4)c3n2)CC1` [A11.008], the IC50 stood at 11.8 µM.

Turning to `O=C(N/N=C(/CC(=O)c1cccs1)C(F)(F)F)c1cccc([N+](=O)[O-])c1` [A11.005], the IC50 is 10.7 µM.

Staying with this assay, now noted: Table 12; read-out: IC50APN.
In the case of `CCOc1ccc(CC(=O)NO)cc1` [A12.013], the IC50 was determined as 7.5 µM.

With `COc1ccc(C(OCCC(=O)NO)c2ccccc2)cc1` (stereo not shown) [A12.053], the IC50 is 33 µM. The same measure, in the same setting: the figure for `NCC(O)CNCCc1ccccc1` (stereo not shown) [A12.039] is 21.2 µM; for `O=C(OCCN1CCCCC1)C1c2ccccc2Oc2ccccc21` [A12.070] it is 94.8 µM; for `CCc1cccc(CC)c1NC(=S)N/N=C1\C(=O)N(CN2CC(C)CC(C)C2)c2ccccc21` (stereo not shown) [A12.010] it is 6.7 µM. Still for that read-out and setting: the figure for `CCOC(=O)C(NC(=O)c1ccccc1)(Nc1ccc(OC)cc1OC)C(F)(F)F` (stereo not shown) [A12.036] is 19 µM.
